Data as given in patent publication US20070129334A1, “Orally Active Purine-Based Inhibitors of Heat Shock Protein 90” (CONFORMA THERAPEUTICS CORPORATION, priority 2001, published 2007).
Where two headings read alike, the source gives them in different places. Blank lines part the entries; values can stand above or below the compound they belong to.

Key:
[1] = test system: HER-2 receptor (Hsp90 client) in MCF-7 cells; assay: HER-2 degradation assay (MCF-7 cells, 16 h, phycoerythrin-labeled antibody and flow cytometry); type: cell-based, human
[2] = test system: MCF-7 breast cancer cells; assay: MTS cell growth inhibition assay; type: cell-based, human; conditions: MCF-7 cells, 5 days; SEM 9-21% of the mean
[3] = test system: Hsp90 clients in N87 stomach cancer xenograft tumors; assay: Pharmacodynamic effect in N87 xenograft model; type: in vivo, mice
Experimental: The pharmacodynamic effect of amine 126 was examined in a N87 xenograft model (FIG. 1b), N87 being a stomach cancer cell line expressing high HER-2 levels. Mice were administered 126.H3PO4 orally at two different regimens (2×100 or 2×200 mg/kg/day) for three days, and were sacrificed 24 h after the last dosing.

[4] = test system: N87 xenograft model of human stomach cancer; conditions: oral 200 mg/kg/day, once daily, 5 days/week
[5] = Pharmacokinetics in Balb/C mice (IV 10 mg/kg, PO 100 mg/kg)
[6] = Solubility in simulated gastric fluid, simulated intestinal fluid and serum; type: physicochemical
[7] = mouse, in vivo, po, 100 mg/kg
in vivo = conditions: mouse, po, 100 mg/kg
MCF-7 xenograft tumors = conditions: cited from earlier work
[8] = oral 2×100 mg/kg/day for three days

Structure (SMILES): COc1ccc(I)c(Sc2nc3c(N)ncnc3n2CCCNC(C)C)c1.O=P(O)(O)O [Compound 126, 8-(2-Iodo-5-methoxy-phenylsulfanyl)-9-(3-isopropylamino-propyl)-9H-purin-6-ylamine H3PO4 salt]
IC50 ([1]; MCF-7 cells, 16 h, SEM 6-11% of the mean, read-out: HER-2 IC50): 180 nM
IC50 [2]: 600 nM
degradation of HER-2, pHER-2, pRaf in tumor [3, 8]: little or no degradation
degrading Akt, pAkt, Raf-1, pMEK, cdk6, pRb in tumor [3, 8]: still effective
levels of HER-2 and pHER-2 in tumor ([3]; oral 2×200 mg/kg/day for three days): decreased only partially
degradation of Akt, pAkt, Raf-1, pRaf, cdk6, pRb in tumor ([3]; oral 2×200 mg/kg/day for three days, 24 h after last dosing): to levels comparable to those obtained with 17-AAG
tumor growth inhibition ([4]; N87): Tumor growth inhibition was observed
mortality and weight loss ([4]; mice): neither mortality nor weight loss was observed
IV Parameters T1/2 ([5]; IV 10 mg/kg, H3PO4 salts): 4.2 h
IV Parameters VSS ([5]; IV 10 mg/kg, H3PO4 salts): 22 L/kg
IV Parameters Cl ([5]; IV 10 mg/kg, H3PO4 salts in phosphatidylcholine/water dispersion): 62 mL/min/kg
PO Parameters T1/2 ([5]; PO 100 mg/kg, H3PO4 salts): 1.5 h
PO Parameters Tmax ([5]; PO 100 mg/kg, H3PO4 salts): 0.5 h
PO Parameters Cmax ([5]; PO 100 mg/kg, H3PO4 salts, plasma): 4700 ng/mL
PO Parameters AUC ([5]; PO 100 mg/kg, over 4 h, H3PO4 salts): 450 µg·min/mL

IC50 ([1]; Homo sapiens, MCF7, read-out: HER-2): 90 nM
Serum (PH 7.4) ([6]; solubility in serum, PH 7.4): 9 µg/mL
Gastric (PH 2.0) ([6]; solubility in simulated gastric fluid, PH 2.0): 220 µg/mL
Intestinal (PH 6.5) ([6]; solubility in simulated intestinal fluid, PH 6.5): 16 µg/mL
plasma concentrations (in words) [7]: significantly lower than 264
AUC (in vivo): 1040 ng·h/mL
Structure (SMILES): CC(=O)OCCCn1c(Sc2nc3cccc(Cl)c3s2)nc2c(N)ncnc21 [Compound 242]

IC50 ([1]; Homo sapiens, MCF7, MCF-7 cells, 16 h, average of at least three observations, read-out: HER-2 IC50): 20000 nM
melting point: 138 to 139 °C
Structure (SMILES): CCCCn1c(Cc2cc(OC)ccc2Cl)nc2c(N)ncnc21 [Compound 311, 9-Butyl-8-(2-chloro-5-methoxy-benzyl)-9H-purin-6-ylamine]

IC50 [2]: 1200 nM
Structure (SMILES): C#CCCCn1c(Cc2cc(OC)c(OC)c(OC)c2Cl)nc2c(N)nc(F)nc21 [PU24FCl]
tumor growth (MCF-7 xenograft tumors; intraperitoneally 200 mg/kg): significantly repressed tumor growth
pharmacodynamic response in tumors (MCF-7 xenograft tumors; intraperitoneally 100-300 mg/kg, DMSO/EtOH/phosphate-buffered saline 1:1:1): down-regulation of HER-2 and Raf-1
aqueous solubility (in words) (Water solubility): too insoluble to be effectively formulated and delivered orally
